The text below walks through data of article PMC3902015 (Journal of Alzheimer's disease : JAD, 2012).

The test system of series [1] is LRP1. As to the kind of experiment: Western blot of LRP1 protein in bEnd3 cells after drug treatment. Particulars: 50 µM, 72 h, vs control (DMSO). For orientation: Immunoblotting shows a protein as a band on a membrane.
A short description of series [2]: Drug concentration in plasma and brain homogenate. The class given is in vivo, C57BL/6 wild-type male mice. Particulars: for concentration at 3 h: brain homogenate.
The subject of series [3] is P-gp. As to the kind of experiment: Immunofluorescence staining of P-gp in isolated brain microvessels. Details: species or system C57BL/6 wild-type mice. To be noted: mouse, in vivo.
For series [4], the system named is LRP1. Description: RT-PCR of LRP1 mRNA in bEnd3 cells. The class given is cell-based, mouse. Particulars: 50 µM, 72 h, vs control.
Series [5] deals with LRP1. Description: Immunofluorescence staining of LRP1 in isolated brain microvessels. More on the design: species or system C57BL/6 wild-type mice. To be noted: mouse, in vivo.
For series [6] the following is noted: cited from earlier work.
Another series deals with MRP1. As to the kind of experiment: Western blot of MRP1 in brain homogenate. The class given is in vivo, C57BL/6 wild-type mice. To be noted: treated mice vs control.
The nature of series [7]: Body weight during in vivo treatment. To be noted: caffeine 40 mg/kg ip once daily, treatment limited to 2 weeks. More on the design: species or system C57BL/6 wild-type male mice.
In the next series the test system is RAGE. As to the kind of experiment: Western blot of RAGE in isolated brain microvessels. To be noted: treated mice vs control. Type of series: in vivo, C57BL/6 wild-type mice.
In series [8] the test system is P-gp. To be noted: bEnd3 cells, 50 µM, 72 h, vs control (DMSO).
A further series deals with cognitive decline. Particulars: mild to moderate AD patients, 3-month course of 300 mg/day; cited from earlier work.
In a further series the test system is MDR1. To be noted: bEnd3 cells, 50 µM, 72 h, vs control.
The conditions of series [9]: after administration of 6.4 mg/kg dose; cited from earlier work.
Series [10] has as its target LRP1 (Mus musculus, UniProt Q91ZX7). As to the kind of experiment: BEI% of 125I-Aβ40 with LRP1 inhibition by intracerebral RAP. The class given is in vivo, C57BL/6 mice. To be noted: for BEI% of 125I-Aβ40 after RAP pretreatment: RAP 19.5 ng/0.5 µl.
The target of series [11] is P-gp (Mus musculus, UniProt P21447). Description: BEI% of 125I-Aβ40 with P-gp inhibition by intracerebral valspodar. The class given is in vivo, C57BL/6 mice. Particulars: for BEI% of 125I-Aβ40 after valspodar pretreatment: valspodar 24 ng/0.5 µl.

Entries after “also recorded” stand apart in the source; their conditions may differ.

LRP1 (Mus musculus, UniProt Q91ZX7), sequence (Q91ZX7 20-4545): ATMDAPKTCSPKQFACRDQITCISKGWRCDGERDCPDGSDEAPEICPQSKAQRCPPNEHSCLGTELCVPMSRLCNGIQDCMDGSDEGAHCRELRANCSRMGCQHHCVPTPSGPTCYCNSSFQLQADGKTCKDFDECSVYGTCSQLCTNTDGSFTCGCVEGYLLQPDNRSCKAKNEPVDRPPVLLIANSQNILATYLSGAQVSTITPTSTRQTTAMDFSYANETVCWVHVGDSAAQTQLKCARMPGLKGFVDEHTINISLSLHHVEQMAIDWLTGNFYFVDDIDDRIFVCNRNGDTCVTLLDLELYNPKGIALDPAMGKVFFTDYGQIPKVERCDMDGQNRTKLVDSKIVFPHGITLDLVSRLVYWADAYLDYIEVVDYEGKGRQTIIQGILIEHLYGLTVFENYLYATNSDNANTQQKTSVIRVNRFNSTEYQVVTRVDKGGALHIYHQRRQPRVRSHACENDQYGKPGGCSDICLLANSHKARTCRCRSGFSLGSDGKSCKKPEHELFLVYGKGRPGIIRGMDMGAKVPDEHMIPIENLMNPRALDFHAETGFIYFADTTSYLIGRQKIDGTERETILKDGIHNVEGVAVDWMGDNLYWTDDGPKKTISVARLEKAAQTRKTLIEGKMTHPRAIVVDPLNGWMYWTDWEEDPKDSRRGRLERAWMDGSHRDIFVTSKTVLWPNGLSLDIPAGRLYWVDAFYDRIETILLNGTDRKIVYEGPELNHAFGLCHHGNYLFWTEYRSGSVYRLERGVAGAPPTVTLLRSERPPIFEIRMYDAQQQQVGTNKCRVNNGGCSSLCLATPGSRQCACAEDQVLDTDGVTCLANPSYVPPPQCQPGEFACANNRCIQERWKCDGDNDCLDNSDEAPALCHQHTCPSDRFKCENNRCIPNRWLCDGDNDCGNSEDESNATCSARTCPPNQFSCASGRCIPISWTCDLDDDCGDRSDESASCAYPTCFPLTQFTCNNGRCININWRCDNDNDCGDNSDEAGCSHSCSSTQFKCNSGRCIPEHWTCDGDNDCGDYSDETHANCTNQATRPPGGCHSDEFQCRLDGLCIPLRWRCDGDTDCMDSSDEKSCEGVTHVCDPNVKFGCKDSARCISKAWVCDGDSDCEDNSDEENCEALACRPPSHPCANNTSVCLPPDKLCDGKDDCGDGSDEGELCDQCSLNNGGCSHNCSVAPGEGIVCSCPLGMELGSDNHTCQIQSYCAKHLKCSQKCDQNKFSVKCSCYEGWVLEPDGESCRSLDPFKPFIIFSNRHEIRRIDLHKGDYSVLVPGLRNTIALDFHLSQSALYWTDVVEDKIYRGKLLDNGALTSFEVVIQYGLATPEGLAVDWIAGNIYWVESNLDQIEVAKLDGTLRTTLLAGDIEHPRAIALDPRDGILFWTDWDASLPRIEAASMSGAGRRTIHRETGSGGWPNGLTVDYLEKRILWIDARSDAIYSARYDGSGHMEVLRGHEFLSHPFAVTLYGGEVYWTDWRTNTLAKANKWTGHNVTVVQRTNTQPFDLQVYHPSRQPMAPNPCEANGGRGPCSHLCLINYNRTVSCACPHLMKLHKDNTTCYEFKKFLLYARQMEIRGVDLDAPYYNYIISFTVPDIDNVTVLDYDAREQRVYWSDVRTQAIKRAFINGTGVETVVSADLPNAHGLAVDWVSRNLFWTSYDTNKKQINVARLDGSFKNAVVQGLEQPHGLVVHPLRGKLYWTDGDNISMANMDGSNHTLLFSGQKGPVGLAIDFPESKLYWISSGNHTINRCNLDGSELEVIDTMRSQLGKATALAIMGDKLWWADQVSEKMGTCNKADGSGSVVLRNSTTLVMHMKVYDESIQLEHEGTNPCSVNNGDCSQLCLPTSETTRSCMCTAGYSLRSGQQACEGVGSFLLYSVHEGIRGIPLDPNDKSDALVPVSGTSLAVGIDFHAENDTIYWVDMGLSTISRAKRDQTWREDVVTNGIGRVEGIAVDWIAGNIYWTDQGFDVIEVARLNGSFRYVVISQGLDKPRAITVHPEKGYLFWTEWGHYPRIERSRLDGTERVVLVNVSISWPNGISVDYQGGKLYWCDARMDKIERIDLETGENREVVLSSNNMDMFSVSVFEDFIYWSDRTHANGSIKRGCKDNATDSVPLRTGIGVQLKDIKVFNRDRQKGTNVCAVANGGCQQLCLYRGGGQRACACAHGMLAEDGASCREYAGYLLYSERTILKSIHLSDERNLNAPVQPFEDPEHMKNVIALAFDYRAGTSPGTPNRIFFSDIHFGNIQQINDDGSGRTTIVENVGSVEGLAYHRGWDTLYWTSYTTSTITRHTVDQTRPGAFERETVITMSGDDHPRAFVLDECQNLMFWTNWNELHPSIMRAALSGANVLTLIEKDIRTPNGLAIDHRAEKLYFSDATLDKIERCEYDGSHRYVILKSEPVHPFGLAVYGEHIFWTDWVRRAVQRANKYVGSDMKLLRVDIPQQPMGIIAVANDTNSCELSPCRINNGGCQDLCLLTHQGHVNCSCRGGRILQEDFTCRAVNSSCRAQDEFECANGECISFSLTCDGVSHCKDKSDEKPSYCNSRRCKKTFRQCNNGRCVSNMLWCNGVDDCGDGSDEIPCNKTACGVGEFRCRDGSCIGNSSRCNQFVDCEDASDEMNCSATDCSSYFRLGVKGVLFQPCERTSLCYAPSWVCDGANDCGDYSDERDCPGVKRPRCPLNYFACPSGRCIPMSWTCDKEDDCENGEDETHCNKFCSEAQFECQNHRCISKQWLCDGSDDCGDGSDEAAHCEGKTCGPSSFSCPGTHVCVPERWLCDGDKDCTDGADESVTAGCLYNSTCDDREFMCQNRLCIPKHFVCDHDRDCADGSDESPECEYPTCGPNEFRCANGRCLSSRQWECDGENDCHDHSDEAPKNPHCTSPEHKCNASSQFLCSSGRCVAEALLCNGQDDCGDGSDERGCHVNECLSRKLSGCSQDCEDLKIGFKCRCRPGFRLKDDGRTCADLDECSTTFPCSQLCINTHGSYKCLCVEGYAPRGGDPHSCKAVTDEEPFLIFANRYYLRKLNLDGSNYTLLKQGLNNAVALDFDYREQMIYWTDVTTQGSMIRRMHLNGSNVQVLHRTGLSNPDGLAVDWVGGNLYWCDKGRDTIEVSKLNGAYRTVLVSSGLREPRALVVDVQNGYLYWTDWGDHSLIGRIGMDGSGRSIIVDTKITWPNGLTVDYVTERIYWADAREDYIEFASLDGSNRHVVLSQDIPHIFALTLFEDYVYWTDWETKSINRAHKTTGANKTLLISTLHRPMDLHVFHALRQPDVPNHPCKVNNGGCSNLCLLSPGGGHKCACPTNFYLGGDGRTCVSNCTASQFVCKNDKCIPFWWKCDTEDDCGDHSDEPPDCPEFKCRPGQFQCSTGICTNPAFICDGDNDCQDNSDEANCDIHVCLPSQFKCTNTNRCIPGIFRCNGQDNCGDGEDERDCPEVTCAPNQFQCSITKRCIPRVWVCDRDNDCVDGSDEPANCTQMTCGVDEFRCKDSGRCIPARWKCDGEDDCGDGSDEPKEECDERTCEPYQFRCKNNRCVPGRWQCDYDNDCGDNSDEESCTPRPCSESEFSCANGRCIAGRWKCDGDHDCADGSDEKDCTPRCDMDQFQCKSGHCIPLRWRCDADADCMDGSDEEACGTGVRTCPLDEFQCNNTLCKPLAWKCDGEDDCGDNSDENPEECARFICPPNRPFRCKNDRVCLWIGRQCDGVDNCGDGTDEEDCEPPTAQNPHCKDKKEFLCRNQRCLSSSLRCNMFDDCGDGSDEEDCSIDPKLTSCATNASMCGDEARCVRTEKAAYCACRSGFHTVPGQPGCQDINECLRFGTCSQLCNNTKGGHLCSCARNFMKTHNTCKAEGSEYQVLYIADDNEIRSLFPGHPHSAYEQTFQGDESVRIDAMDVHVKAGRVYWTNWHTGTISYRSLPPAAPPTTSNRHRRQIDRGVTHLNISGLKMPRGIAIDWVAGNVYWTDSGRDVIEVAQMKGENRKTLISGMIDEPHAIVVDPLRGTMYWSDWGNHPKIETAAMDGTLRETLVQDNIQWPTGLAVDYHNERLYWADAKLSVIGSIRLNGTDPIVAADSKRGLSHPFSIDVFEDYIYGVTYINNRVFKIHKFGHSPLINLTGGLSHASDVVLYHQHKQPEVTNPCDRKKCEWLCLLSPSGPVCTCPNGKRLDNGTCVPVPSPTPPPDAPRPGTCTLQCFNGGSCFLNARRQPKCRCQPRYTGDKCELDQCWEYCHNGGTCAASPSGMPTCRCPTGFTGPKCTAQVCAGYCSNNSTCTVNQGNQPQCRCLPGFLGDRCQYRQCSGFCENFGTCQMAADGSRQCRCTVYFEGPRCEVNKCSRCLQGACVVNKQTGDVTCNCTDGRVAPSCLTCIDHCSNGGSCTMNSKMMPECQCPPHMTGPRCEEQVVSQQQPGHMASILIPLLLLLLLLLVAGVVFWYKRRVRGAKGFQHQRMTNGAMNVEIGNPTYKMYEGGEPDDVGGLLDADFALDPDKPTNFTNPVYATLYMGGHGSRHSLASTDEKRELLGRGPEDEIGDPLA

For orientation: Kp means tissue or fluid exposure divided by exposure in the circulation. Consider `Cn1c(=O)c2c(ncn2C)n(C)c1=O` [Caffeine], for which the “increase in LRP1 level (densitometric analysis of western blot)” value in the series on LRP1 [1] is on record as “but not caffeine”. The “Drug concentration Plasma” value in series [2] (3 h after last ip dose (rifampicin 20 mg/kg, caffeine 40 mg/kg daily), n = 12) was 20000 ± 5400 ng/mL. Moreover, in series [2] (male, C57BL/6, mouse, brain homogenate / plasma, ip), the Kp at 3 h is 0.5. This compound also showed a concentration at 3 h in series [2] (male, C57BL/6, mouse, ip) of 11800 ± 3600 ng/mL. Also, in the series on P-gp [3], the “increase in P-gp expression in brain microvessels (immunofluorescence)” value is listed as 2.3 fold. Further, the “increase in mRNA level of LRP1 (RT-PCR)” value in the series on LRP1 [4] was “did not show any effect”. Moreover, the “increase in LRP1 expression in brain microvessels (immunofluorescence)” value in the series with LRP1 [5] is listed as 1.2 fold. The plasma protein binding in [6] is listed as 10–37%. Further, the “effect on brain homogenate's MRP1 expression (western blot)” value in the series with MRP1 is reported as “did not alter; also recorded: Insignificant differences”. The “body weight observation during treatment” value in [7] is listed as “weight loss”. Besides, in the series on RAGE, the “effect on microvessels' RAGE expression (western blot)” value was “did not alter; also recorded: Insignificant differences”.

In the case of `CO[C@H]1/C=C/O[C@@]2(C)Oc3c(C)c(O)c4c(O)c(c(/C=N/N5CCN(C)CC5)c(O)c4c3C2=O)NC(=O)/C(C)=C\C=C\[C@H](C)[C@H](O)[C@@H](C)[C@@H](O)[C@@H](C)[C@H](OC(C)=O)[C@@H]1C` [Rifampicin], the “increase in LRP1 level (densitometric analysis of western blot)” value with LRP1 [1] is recorded as 1.2 fold. Further, the “increase in P-gp level (densitometric analysis of western blot)” value in the series with P-gp [8] was 1.45 fold. Moreover, the “effect on rate of cognitive decline” value in the series on cognitive decline is on record as “attenuated the rate of cognitive decline”. In addition, in series [2] (male, C57BL/6, mouse, ip), the concentration at 3 h is 150 ± 80 ng/mL. Moreover, in the series on LRP1 [4], the “increase in mRNA level of LRP1 (RT-PCR)” value stood at 1.4 fold. In addition, in the series with MDR1, the “increase in mRNA of MDR1 (RT-PCR)” value worked out at 1.5 fold. Besides, the “free (unbound) plasma level in humans” value in series [9] was 1.08 µg/mL.

As to “RAP: human receptor associated protein, a specific LRP1 inhibitor”, the “BEI% of 125I-Aβ40 after RAP pretreatment” value with LRP1 [10] (caffeine-treated mice, without RAP 80.4 ±[…]) came out at 76.9 ±2.5%; in the series with LRP1 [10] (rifampicin-treated mice, without RAP 82.4±[…]) it was 69.7 ±3.3%. Moreover, the figures for the “reduction in BEI% values by RAP” value with LRP1 [10] (control mice) and with LRP1 [10] (rifampicin-treated mice) were “about 33%” and about 13%, respectively.

For `C/C=C/C[C@@H](C)C(=O)[C@H]1C(=O)N[C@@H](C(C)C)C(=O)N(C)CC(=O)N(C)[C@@H](CC(C)C)C(=O)N[C@@H](C(C)C)C(=O)N(C)[C@@H](CC(C)C)C(=O)N[C@@H](C)C(=O)N[C@H](C)C(=O)N(C)[C@@H](CC(C)C)C(=O)N(C)[C@@H](CC(C)C)C(=O)N(C)[C@@H](C(C)C)C(=O)N1C` [Valspodar], the “reduction in BEI% values by valspodar” value at P-gp [11] (caffeine-treated mice) is given as about 32%; at P-gp [11] (rifampicin-treated mice), about 25%. In addition, the “BEI% of 125I-Aβ40 after valspodar pretreatment” value at P-gp [11] (caffeine-treated mice, without valspodar 80.4±[…]) amounted to 48.1 ±2.3%; at P-gp [11] (rifampicin-treated mice, without valspodar 82.4±[…]) it was 57.5± 1.1%.
